Test results from ChEMBL document CHEMBL1221174, “Evolution of glutamate interactions during binding to a glutamate receptor” (Nat Chem Biol, 2005).
The source made the active and inactive calls. No cut-off for these calls is given here.

Assays:
[1] = Binding affinity to Glutamate receptor 2 Y450F mutant S1S2 ligand binding domain assessed as induction protein vibrational state by time resolved FTIR difference spectra method
[2] = Binding affinity to Glutamate receptor 2 E705D mutant S1S2 ligand binding domain assessed as induction protein vibrational state by time resolved FTIR difference spectra method

Activity [1]: Active | Activity [2]: Active
Structure (SMILES): N[C@@H](CCC(=O)O)C(=O)O
